Assay results: PubChem BioAssay AID330 (DTP/NCI, 2004)
Values joined by “and” are separate entries in the source; they are usually repeats but may differ in a detail not shown here. Equal entries are not always repeated. Toxic doses and inconclusive results are not listed. How the source made its calls: active means survival T/C of 150% or more; inactive means T/C below 125% in these data.

Tested on: P388 leukemia ip, CD2F1 mice, survival T/C
Experiment: NCI In Vivo Anticancer Drug Screen. Data for tumor model P388 Leukemia (intraperitoneal) in CD2F1 (CDF1) mice
Details: endpoint: median survival time, higher = longer survival
Method in brief: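 Mice carrying the transplanted tumor received test compound or vehicle. Survival was recorded in each group, and the value is the treated-group measurement divided by that of the vehicle-treated control group.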

[1] = dose: 50.0 mg/kg/injection, schedule: Q01DX005 (ip), vehicle: Klucel (hydroxypropylcellulose) (HPC)
[2] = dose: 100.0 mg/kg/injection, schedule: Q01DX005 (ip), vehicle: Klucel (hydroxypropylcellulose) (HPC)
[3] = dose: 200.0 mg/kg/injection, schedule: Q01DX005 (ip), vehicle: Klucel (hydroxypropylcellulose) (HPC)
[4] = dose: 50.0 mg/kg/injection, schedule: Q01DX009 (ip), vehicle: Klucel (hydroxypropylcellulose) (HPC)
[5] = dose: 100.0 mg/kg/injection, schedule: Q01DX009 (ip), vehicle: Klucel (hydroxypropylcellulose) (HPC)
[6] = dose: 200.0 mg/kg/injection, schedule: Q01DX009 (ip), vehicle: Klucel (hydroxypropylcellulose) (HPC)
[7] = dose: 50.0 mg/kg/injection, schedule: Q01DX009 (ip), vehicle: saline with Tween-80
[8] = dose: 100.0 mg/kg/injection, schedule: Q01DX009 (ip), vehicle: saline with Tween-80
[9] = dose: 200.0 mg/kg/injection, schedule: Q01DX009 (ip), vehicle: saline with Tween-80
[10] = dose: 50.0 mg/kg/injection, schedule: Q01DX009 (ip), vehicle: saline
[11] = dose: 60.0 mg/kg/injection, schedule: Q01DX005 (ip), vehicle: saline with Tween-80
[12] = dose: 120.0 mg/kg/injection, schedule: Q01DX005 (ip), vehicle: saline with Tween-80
[13] = dose: 100.0 mg/kg/injection, schedule: Q01DX009 (ip), vehicle: saline
[14] = dose: 12.5 mg/kg/injection, schedule: Q01DX009 (ip), vehicle: Klucel (hydroxypropylcellulose) (HPC)
[15] = dose: 25.0 mg/kg/injection, schedule: Q01DX009 (ip), vehicle: Klucel (hydroxypropylcellulose) (HPC)
[16] = dose: 240.0 mg/kg/injection, schedule: Q01DX005 (ip), vehicle: saline with Tween-80
[17] = dose: 25.0 mg/kg/injection, schedule: Q01DX009 (ip), vehicle: saline with Tween-80

Measured: T/C

COc1c(CC(O)C(C)(C)O)c(=O)n(C)c2ccccc12 (stereo unspecified)
inactive: dose: 4.5 mg/kg/injection, schedule: Q01DX005 (ip), vehicle: Klucel (hydroxypropylcellulose) (HPC) 102 % of control | dose: 9.0 mg/kg/injection, schedule: Q01DX005 (ip), vehicle: Klucel (hydroxypropylcellulose) (HPC) 98 % of control | dose: 18.0 mg/kg/injection, schedule: Q01DX005 (ip), vehicle: Klucel (hydroxypropylcellulose) (HPC) 90 % of control | dose: 36.0 mg/kg/injection, schedule: Q01DX005 (ip), vehicle: Klucel (hydroxypropylcellulose) (HPC) 93 % of control

COc1ccc2c(c1OC)C1=NCCc3cc4c(cc3C1(OC)C2=O)OCO4 (stereo unspecified)
inactive: dose: 25.0 mg/kg/injection, schedule: Q01DX005 (ip), vehicle: Klucel (hydroxypropylcellulose) (HPC) 111 % of control | [1] 99 % of control | [2] 109 % of control | [3] 98 % of control

O=[N+]([O-])c1ccc(-c2csc(-c3ccc(Br)cc3)n2)cc1
inactive: [4] 87 % of control | [5] 95 % of control | [6] 92 % of control

CO[C@H]1/C=C/O[C@@]2(C)Oc3c(C)c(O)c4c(O)c(c(/C=N/N5C(C)CN(Cc6ccccc6)CC5C)c(O)c4c3C2=O)NC(=O)/C(C)=C\C=C\[C@H](C)[C@H](O)[C@@H](C)[C@@H](O)[C@@H](C)[C@H](OC(C)=O)[C@@H]1C (stereo partly specified)
inactive: dose: 100.0 mg/kg/injection, schedule: Q01DX009 (ip), vehicle: saline sonified 90 % of control | dose: 200.0 mg/kg/injection, schedule: Q01DX009 (ip), vehicle: saline sonified 95 % of control

CC(=O)Nc1cc(C(=O)O)cc(C(=O)O)c1
inactive: [7] 109 % of control | [8] 105 % of control | [9] 92 % of control

C#CC1CCC(NC(=O)NCCCCCCNC(=O)NC2CCC(C#C)CC2)CC1 (stereo unspecified)
inactive: [1] 90 % of control | [2] 94 % of control | [3] 86 % of control

CCCCCCCCCCCCCCCC[N+]1([O-])CCCCCC1
inactive: [10] 93 % of control

CCN(CC)CC(O)c1cc(-c2ccccc2)nc2ccc(OC)cc12 (stereo unspecified)
inactive: [1] 100 % of control | [2] 92 % of control

Cc1ccc(C(=O)C[n+]2ccccc2)c(O)c1
inactive: [11] 98 % of control | [12] 100 % of control

OCC1C=Cc2ccccc21 (stereo unspecified)
inactive: [10] 109 % of control | [13] 107 % of control | dose: 200.0 mg/kg/injection, schedule: Q01DX009 (ip), vehicle: saline 114 % of control

COC(=O)c1ccc(Cl)cc1O
inactive: dose: 12.5 mg/kg/injection, schedule: Q01DX009 (ip), vehicle: distilled water + Tween-80 92 % of control | dose: 25.0 mg/kg/injection, schedule: Q01DX009 (ip), vehicle: distilled water + Tween-80 100 % of control | dose: 50.0 mg/kg/injection, schedule: Q01DX009 (ip), vehicle: distilled water + Tween-80 102 % of control | dose: 100.0 mg/kg/injection, schedule: Q01DX009 (ip), vehicle: distilled water + Tween-80 102 % of control | dose: 200.0 mg/kg/injection, schedule: Q01DX009 (ip), vehicle: distilled water + Tween-80 92 % of control

C=C1C(=O)OC2/C=C(\C)CC/C=C(\C)C(OC(=O)C3(C)OC3C)C(O)C12 (stereo unspecified)
inactive: [14] 96 % of control | [15] 100 % of control | [4] 115 % of control | [5] 103 % of control

O=[N+]([O-])c1cccc2ccc(N/N=C/c3ccccc3O)nc12
inactive: [4] 94 % of control | [7] 86 % of control | [5] 87 % of control and 91 % of control | [8] 93 % of control | [9] 88 % of control | dose: 400.0 mg/kg/injection, schedule: Q01DX009 (ip), vehicle: saline with Tween-80 89 % of control

CN(C)Cc1cc(CN(C)C)c(O)c(CN(C)C)c1
inactive: [7] 88 % of control | [8] 93 % of control

NC(=S)N/N=C\C(=O)c1ccccc1O
inactive: dose: 9.4 mg/kg/injection, schedule: Q01DX009 (ip), vehicle: saline with Tween-80 100 % of control (2×) and 101 % of control | dose: 18.75 mg/kg/injection, schedule: Q01DX009 (ip), vehicle: saline with Tween-80 90 % of control and 95 % of control and 98 % of control | dose: 75.0 mg/kg/injection, schedule: Q01DX009 (ip), vehicle: saline with Tween-80 99 % of control and 105 % of control | dose: 150.0 mg/kg/injection, schedule: Q01DX009 (ip), vehicle: saline with Tween-80 103 % of control

CC(=O)Oc1ccc2ccc(=O)oc2c1OC(C)=O
inactive: [15] 102 % of control | [4] 101 % of control | [5] 109 % of control | [6] 118 % of control

S=C(Nc1ccccc1)SCc1ccc2c(c1)OCO2
inactive: dose: 100.0 mg/kg/injection, schedule: Q01DX001 (ip), vehicle: saline 98 % of control | dose: 200.0 mg/kg/injection, schedule: Q01DX001 (ip), vehicle: saline 101 % of control | dose: 400.0 mg/kg/injection, schedule: Q01DX001 (ip), vehicle: saline 101 % of control

O=C(N/N=C/c1ccc(O)c(S(=O)(=O)O)c1)C(=O)N/N=C/c1ccc(O)c(S(=O)(=O)O)c1
inactive: [4] 101 % of control | [5] 108 % of control | [6] 108 % of control

CCCCOC(=O)C1C2CCC(O2)C1C(N)=O (stereo unspecified)
inactive: [11] 99 % of control | [12] 100 % of control

CC(=O)n1oc2c(Br)cc(Br)cc2c1=O
inactive: [1] 116 % of control | [2] 103 % of control | [3] 107 % of control

COc1cc(OC)c2cc(C(=O)c3cccc4ccccc34)c(=O)oc2c1
inactive: [11] 102 % of control | [12] 114 % of control | [16] 91 % of control

CCCCCCCCCCSc1ncnc2nc[nH]c12
inactive: dose: 12.5 mg/kg/injection, schedule: Q01DX009 (ip), vehicle: saline with Tween-80 100 % of control | [17] 90 % of control | [7] 90 % of control

CCOC(=O)NC(C#N)=C(Cl)Cl
inactive: dose: 6.25 mg/kg/injection, schedule: Q01DX009 (ip), vehicle: Klucel (hydroxypropylcellulose) (HPC) 100 % of control | [14] 100 % of control | [15] 101 % of control

COCCOCOCCCC#C[Si](C)(C)C
inactive: [11] 100 % of control | [12] 106 % of control | [16] 106 % of control

O=c1[nH]cnc2cc(N3CCN(Cc4ccccc4)CC3)c([N+](=O)[O-])cc12
inactive: dose: 100.0 mg/kg/injection, schedule: Q04DX003 (ip), vehicle: Klucel (hydroxypropylcellulose) (HPC) 102 % of control | dose: 200.0 mg/kg/injection, schedule: Q04DX003 (ip), vehicle: Klucel (hydroxypropylcellulose) (HPC) 98 % of control | dose: 400.0 mg/kg/injection, schedule: Q04DX003 (ip), vehicle: Klucel (hydroxypropylcellulose) (HPC) 106 % of control

CC(C)(C)c1cc(C(=O)[O-])c([OH2+])c(C(C)(C)C)c1.CC(C)(C)c1cc(C(=O)[O-])c([OH2+])c(C(C)(C)C)c1.[Mn+2]
inactive: [11] 106 % of control and 111 % of control | [12] 105 % of control and 121 % of control

FC(F)(F)c1cccc(N(c2nc(Cl)nc(Cl)n2)c2nc(Cl)nc(Cl)n2)c1
inactive: dose: 50.0 mg/kg/injection, schedule: Q01DX009 (ip), vehicle: suspension in saline 94 % of control | dose: 100.0 mg/kg/injection, schedule: Q01DX009 (ip), vehicle: suspension in saline 92 % of control | dose: 200.0 mg/kg/injection, schedule: Q01DX009 (ip), vehicle: suspension in saline 91 % of control

CC1CCC2(C(=O)O)CCC3(C)C(=CCC4C5(C)CCC(OC(=O)/C=C/c6ccccc6)C(C)(C)C5CCC43C)C2C1C (stereo unspecified)
inactive: dose: 7.44 mg/kg/injection, schedule: Q01DX009 (ip), vehicle: Klucel (hydroxypropylcellulose) (HPC) 107 % of control | dose: 14.88 mg/kg/injection, schedule: Q01DX009 (ip), vehicle: Klucel (hydroxypropylcellulose) (HPC) 100 % of control | dose: 29.76 mg/kg/injection, schedule: Q01DX009 (ip), vehicle: Klucel (hydroxypropylcellulose) (HPC) 101 % of control

CN1C=NNC(=O)c2ccccc21
inactive: [7] 86 % of control | [8] 87 % of control | [9] 102 % of control

BrC1/C=C\CC(Br)/C=C\C1 (stereo unspecified)
inactive: [7] 110 % of control | [8] 117 % of control | [9] 115 % of control

C(=NCCN=Cc1ccc2c(c1)OCO2)c1ccc2c(c1)OCO2
inactive: [17] 93 % of control | [7] 92 % of control | [8] 99 % of control | [9] 100 % of control

c1ccc2nc(N3CCCCC3)c(N3CCCCCC3)nc2c1
inactive: [1] 97 % of control | [2] 100 % of control | [3] 99 % of control

N=C(N)SCc1cccc(-c2nc3ccccc3c(=O)o2)c1
inactive: [10] 102 % of control | [13] 113 % of control
